These results are taken from the OligoGym collection.

Several values for one entry are separate records, joined by “and”; a condition that tells them apart may be missing. Identical values can stand only once. After the bases stand the sugars from the 5' end (letter, count) and the backbone: PS all phosphorothioate, else s phosphorothioate and o phosphodiester by linkage. Methylation of C is not given here. e = 2'-O-(2-methoxyethyl) (MOE); l = locked nucleic acid (LNA); k = constrained ethyl (cEt); d = 2'-deoxy (DNA)

For one series, the target named is SNHG14. The note with it: ASO, Human Neuronal Cell.
Another series concerns the target APOL1. The note with it: ASO.

For TAAAGATCCCATCACT (sugars l4 d10 l2, PS), the target mRNA inhibition with SNHG14 (0.2 µM) came out at 31%; with SNHG14 (1 µM), 50%.

In turn, “CTGTATACACCATCCCA (sugars lddldddddddddldll, PS)” yielded a target mRNA inhibition in the series with SNHG14 (7.5 µM) of 49%.

Turning to “TGAAAATCTCAACTACCAT (sugars lldlldddddddlddldll, PS)”, in the series with SNHG14 (7.5 µM), the target mRNA inhibition came out at 46%.

In turn, “TTATAGCCATTCTATCT (sugars l1 d10 l3 d1 l2, PS)” returned a target mRNA inhibition in the series with SNHG14 (7.5 µM) of 51%.

The sequence “ATTTATTTCCATTTATTTTC (sugars ldlddlddddddddllldll, PS)” came in with a target mRNA inhibition with SNHG14 (7.5 µM) of 58%.

With “ACTCTGCAATACACCAA (sugars lldlddddddddlldll, PS)”, in the series with SNHG14 (7.5 µM), the target mRNA inhibition was 65%.

TGTAAGTGCAACCAAT (sugars k4 d9 k3, PS): the target mRNA inhibition was 19% in the series with APOL1 (A431, 0.0625 µM); 46% with APOL1 (A431, 0.25 µM); 78% with APOL1 (A431, 1 µM).

In the series with APOL1 (A431, 2 µM), “ATCAGATGGGTACTTC (sugars kkkddddkdkdkdddd, PS)” displayed a target mRNA inhibition of 79%.

In the case of CTTATGCTTACTCCAC (sugars k4 d9 k3, PS), the target mRNA inhibition with APOL1 (A431, 0.0625 µM) was determined as 64%; in the series with APOL1 (A431, 0.25 µM), 75%; in the series with APOL1 (A431, 1 µM), 90%.

As to “ACGCAATGCTGACTTG (sugars kkkddddkdkdkdddd, PS)”, the target mRNA inhibition with APOL1 (A431, 2 µM) was 70%.

In the case of “ATATCAGATGGGTACT (sugars kkddddkekekddddd, PS)”, the target mRNA inhibition with APOL1 (A431, 2 µM) came to 21%.

As to “GAAGCTTTAAACTCAG (sugars k2 d4 e3 k2 d5, PS)”, in the series with APOL1 (A431, 2 µM), the target mRNA inhibition turned out to be 72%.

The sequence “TTGTAAGTGCAACCAA (sugars kkddddkdkdkddddd, PS)” displayed a target mRNA inhibition with APOL1 (A431, 2 µM) of 74%.

For TTGTCTTGCAAGGTTG (sugars k4 d9 k3, PS), the target mRNA inhibition in the series with APOL1 (A431, 0.0625 µM) came out at 55%; with APOL1 (A431, 0.25 µM), 69%; with APOL1 (A431, 1 µM), 85%.

In the series with APOL1 (A431, 2 µM), “ATCAGATGGGTACTTC (sugars kekddddeekkddddd, PS)” registered a target mRNA inhibition of 91%.

As for TGTGATGTGGGACTTG (sugars k4 d9 k3, PS), the target mRNA inhibition worked out at 32% in the series with APOL1 (A431, 0.0625 µM); 70% with APOL1 (A431, 0.25 µM); 84% in the series with APOL1 (A431, 1 µM).

“ATGCTAATTTTCTGAC (sugars kkkddddkekekdddd, PS)”: the target mRNA inhibition with APOL1 (A431, 0.0156 µM) came to 26%; with APOL1 (A431, 0.0625 µM), 46%; with APOL1 (A431, 0.25 µM), 68%; with APOL1 (A431, 1 µM) it was 88%; with APOL1 (A431, 2 µM), 95%.

“CTATTAGAGGGCTAGT (sugars kdddddkekekddddd, PS)” displayed a target mRNA inhibition with APOL1 (A431, 2 µM) of 28%.

With “GTTTTGTAAGTGCAAC (sugars kkkddddkekekdddd, PS)”, the target mRNA inhibition with APOL1 (A431, 2 µM) turned out to be 59%.

In the case of “ATTCTATTAGAGGGCT (sugars kekddddeekkddddd, PS)”, in the series with APOL1 (A431, 2 µM), the target mRNA inhibition came out at 77%.

As to “ACGCAATGCTGACTTG (sugars kkddddekekeddddd, PS)”, the target mRNA inhibition with APOL1 (A431, 0.0156 µM) turned out to be 6%; with APOL1 (A431, 0.0625 µM), 23%; with APOL1 (A431, 0.25 µM), 59%; in the series with APOL1 (A431, 1 µM) it was 80%; with APOL1 (A431, 2 µM), 92%.

In the case of “GTTCAAAAGCAGCATT (sugars kdddddkekekddddd, PS)”, the target mRNA inhibition in the series with APOL1 (A431, 2 µM) amounted to 79%.

For the sequence “GCTTTAAACTCAGGTG (sugars kkkddddkekekdddd, PS)”, the target mRNA inhibition with APOL1 (A431, 2 µM) was found to be 68%.

Turning to “TATTTCTTGATGTGGT (sugars kkddddkekekkdddd, PS)”, the target mRNA inhibition with APOL1 (A431, 2 µM) worked out at 71%.

In the series with APOL1 (A431, 2 µM), “AGCTTTAAACTCAGGT (sugars kkkddddkekekdddd, PS)” displayed a target mRNA inhibition of 64%.

As for “CGTCAATATATTCTTT (sugars kkkddddkekeddddd, PS)”, the target mRNA inhibition with APOL1 (A431, 0.0156 µM) is 35%; in the series with APOL1 (A431, 0.04 µM), 53% and 50%; with APOL1 (A431, 0.0625 µM) it was 72%; with APOL1 (A431, 0.25 µM), 90%; with APOL1 (A431, 1 µM), 96% and 95%; in the series with APOL1 (A431, 2 µM), 94%.

On to “ATTTCTTGATGTGGTG (sugars kdddddkekekddddd, PS)”, for which the target mRNA inhibition was determined as 22% in the series with APOL1 (A431, 0.0156 µM); 50% in the series with APOL1 (A431, 0.0625 µM); 80% in the series with APOL1 (A431, 0.25 µM); 91% with APOL1 (A431, 1 µM); 96% with APOL1 (A431, 2 µM).

Take “GTTATGAAATTATTGG (sugars kekddddeekkddddd, PS)”: the target mRNA inhibition in the series with APOL1 (A431, 0.0156 µM) was found to be 14%; with APOL1 (A431, 0.0625 µM), 43%; in the series with APOL1 (A431, 0.25 µM), 64%; with APOL1 (A431, 1 µM) it was 84%; in the series with APOL1 (A431, 2 µM), 90%.

On to “GAAGATTGGCTCTGGC (sugars kkddddekekeddddd, PS)”, for which the target mRNA inhibition with APOL1 (A431, 2 µM) is 64%.

In the series with APOL1 (A431, 2 µM), “CGTGTTATATTTGATC (sugars kkkddddkekekdddd, PS)” had a target mRNA inhibition of 82%.

As to “GTTATATTTGATCCTC (sugars kddddkekekeddddd, PS)”, the target mRNA inhibition with APOL1 (A431, 2 µM) was found to be 60%.

Turning to “CTTTATACCAGTGTCT (sugars kkddddekekeddddd, PS)”, the target mRNA inhibition in the series with APOL1 (A431, 0.0156 µM) amounted to 29%; with APOL1 (A431, 0.04 µM), 50%; with APOL1 (A431, 0.0625 µM), 60%; with APOL1 (A431, 0.25 µM), 82%; with APOL1 (A431, 1 µM) it was 95%; with APOL1 (A431, 2 µM), 98%.
